PubChem BioAssay (NCI)
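Cultured in 96-well plates, cells were exposed to test compound for 48 hours across five concentrations. Here, GI50 denotes the concentration required for 50% inhibition of growth. TGI: concentration producing complete growth inhibition.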

Columns and labels:
Experiment in all cases: growth of human tumour cells (NCI), 48 h
CCRF-CEM leukemia = system: CCRF-CEM leukemia
SNB-75 CNS = system: SNB-75 CNS
MDA-MB-231 breast = system: MDA-MB-231 breast
SF-268 CNS = system: SF-268 CNS
SF-295 CNS = system: SF-295 CNS
NCI-H23 lung = system: NCI-H23 lung
HCT-116 colon = system: HCT-116 colon
SR leukemia = system: SR leukemia
NCI-H460 lung = system: NCI-H460 lung
RXF 393 renal = system: RXF 393 renal

Structure (SMILES)	GI50 (CCRF-CEM leukemia) [µM]	TGI (CCRF-CEM leukemia) [µM]	GI50 (SNB-75 CNS) [µM]	TGI (SNB-75 CNS) [µM]	GI50 (MDA-MB-231 breast) [µM]	TGI (MDA-MB-231 breast) [µM]	GI50 (SF-268 CNS) [µM]	TGI (SF-268 CNS) [µM]	GI50 (SF-295 CNS) [µM]	TGI (SF-295 CNS) [µM]	GI50 (NCI-H23 lung) [µM]	TGI (NCI-H23 lung) [µM]	GI50 (HCT-116 colon) [µM]	TGI (HCT-116 colon) [µM]	GI50 (SR leukemia) [µM]	TGI (SR leukemia) [µM]	GI50 (NCI-H460 lung) [µM]	TGI (NCI-H460 lung) [µM]	GI50 (RXF 393 renal) [µM]	TGI (RXF 393 renal) [µM]
C=C1C(=O)O[C@H]2[C@H]1CC/C(Cn1cc(-c3cc(C(F)(F)F)cc(C(F)(F)F)c3)nn1)=C\CC[C@@]1(C)O[C@@H]21	0.169	0.821	1.26	2.52	0.333	1.06	1.08	2.49	1.19	2.53	1.12	2.65	0.153	0.312	0.103	0.444	1.22	2.67	0.0274	0.102
Cc1cc2nc(CCC(=O)O)c(=O)[nH]c2cc1C	–	> 100	–	> 100	–	–	–	> 100	–	> 100	–	> 100	–	> 100	–	> 100	–	> 100	–	> 100
COc1c(OC)c(OC)c2c(c1OC)c(=O)c1ccccc1n2C	–	–	–	> 100	–	> 100	–	> 100	–	> 100	–	> 100	–	> 100	–	> 100	–	–	–	–
CC(=O)[C@@]1(O)CC[C@H]2[C@@H]3C[C@H](C)C4=CC(=O)CC[C@]4(C)[C@H]3[C@@H](O)C[C@@]21C	–	> 100	–	> 100	–	> 100	–	> 100	–	> 100	–	> 100	–	> 100	–	> 100	–	> 100	–	> 100
CC1(C)N=C(N)N=C(N)N1c1ccc(OCCCCOc2ccc(S(=O)(=O)F)cc2)c(Cl)c1	0.0794	17.6	0.737	17.1	1.9	23.9	0.076	16.4	0.286	11.5	0.115	19.5	0.0463	16.7	0.0445	26.9	0.0382	11.8	0.363	23.2
O=NNc1ccc(S(=O)(=O)c2ccccc2)cn1	–	> 100	–	> 100	–	> 100	–	> 100	–	> 100	–	> 100	–	> 100	–	> 100	–	> 100	–	–
Oc1ccccc1C=NCc1ccco1	–	> 100	–	> 100	–	–	–	> 100	–	> 100	–	> 100	–	> 100	–	> 100	–	> 100	–	> 100
N/C(=C\c1ccc(OCc2ccccc2)c(OCc2ccccc2)c1[N+](=O)[O-])C(=O)O	–	> 100	–	> 100	–	–	–	> 100	–	> 100	–	> 100	–	> 100	–	> 100	–	–	–	> 100
CCC/C(=N/NC(=O)C(N)=O)C(CC)C(=O)CCC(=O)N(Cc1ccccc1)Cc1ccccc1 (configuration not stated)	–	> 100	–	> 100	–	–	–	> 100	–	> 100	–	> 100	–	> 100	–	> 100	–	> 100	–	> 100
CC1(CO)OC(n2cc(C(=O)NC(=O)OCc3ccccc3)c(=O)[nH]c2=O)CC1O (configuration not stated)	–	> 100	–	> 100	–	–	–	> 100	–	> 100	–	> 100	–	> 100	–	> 100	–	> 100	–	–
COC(=O)N1CCc2c(nc(N(C)CCO)[nH]c2=O)C1	–	> 100	–	> 100	–	–	–	> 100	–	> 100	–	> 100	–	> 100	–	> 100	–	> 100	–	> 100
O=C1C(Cl)=C(Nc2cccc(Cl)c2)C(=O)N1Cc1ccccc1Cl	0.457	> 100	5.48	30	2.4	15.1	13.1	36	0.476	20.9	–	–	1.03	4.41	0.26	0.645	11.8	27	1.26	6.53
COC(=O)/C([Se]c1c(C)cc(C)cc1C)=C(\[Se]c1c(C)cc(C)cc1C)C(=O)OC	–	> 100	–	> 100	–	–	–	> 100	–	> 100	–	> 100	–	> 100	–	> 100	–	> 100	–	> 100
O=S1CCS(=O)CCS(=O)CC1 (configuration not stated)	–	> 100	–	> 100	–	> 100	–	> 100	–	> 100	–	> 100	–	> 100	–	> 100	–	> 100	–	–
COC(=O)C(=O)OC1(C(C)=O)CC2(c3ccccc3)OC1(c1ccccc1)c1ccccc12 (configuration not stated)	–	> 100	–	61.5	–	–	–	44	–	31.4	–	33.3	–	33.8	–	> 100	–	36.2	–	29
COc1cc2cc(Oc3ccc(NC(=O)Nc4cccc(C(F)(F)F)c4)cc3)c(C)nc2cc1OC	–	–	1.17	6.18	1.13	4.15	2.57	15.5	1.13	3.59	1.7	7.41	1.46	5.84	1.17	3.33	1.6	6.02	1.63	4.97
COC1CC2CCC(C)C(O)(O2)C(=O)C(=O)N2CCCCC2C(=O)OC(C(C)CC2CCC(O)C(OC)C2)CC(=O)C(C)C=C(C)C(O)C(OC)C(=O)C(C)CC(C)/C=C/C=C/C=C1C (configuration not stated)	–	–	< 0.005	7.93	4.32	12.9	3.82	11.5	< 0.005	7.76	0.0688	15.5	4.34	11.3	< 0.005	15.2	< 0.005	11.5	< 0.005	7.48
CCn1c(CN2CCN(Cc3ccccc3)CC2)nc2cc(NC(=O)c3cccs3)ccc21	–	–	12.4	30.6	16.9	> 100	25.4	97.9	16.7	34.7	19.9	57	14.4	38.7	12.6	39.1	18.7	42.5	12.5	33.1
